# Assay results reported in patent US9676727B2, “Myxovirus therapeutics, compounds, and uses related thereto” (priority 2011, dated 2017).
# Like-named read-outs stand apart in the source and are kept apart here.
# Columns and labels:
# [1] = test system: MV-Alaska; assay: Viral CPE-reduction assay (MeV-Alaska in Vero-SLAM cells, crystal violet); format: cell-based, Measles virus (MeV); conditions: Measles morbillivirus
# Procedure: Methods for evaluating viral activity are provided for in Yoon et al., J Biomol Screen., 2008, 13(7): 591-608 and Krumm et al., PLoS ONE, 2011, 6(5), e20069, both hereby incorporated by reference in their entirety. In certain instances, Vero-SLAM cells were infected with MeV-Alaska in four replicates per compound concentration in a 96-well plate format at an MOI of 0.4 pfu/cell in the presence of the inhibitor. At 96 hours post-infection, cell monolayers were subjected to crystal violet staining (0.1% crystal violet in 20% ethanol), and the absorbance of dried plates at 560 nm determined. Virus-induced cytopathicity was then calculated according to the formula [% rel. CPE=100-(experimental-minimum)/(maximum-minimum)*100], with minimum referring to infected, vehicle-treated wells and maximum to mock-infected wells.
# [2] = test system: MV-Alaska; assay: Virus yield (virus titer) reduction assay; format: cell-based, Measles virus (MeV); conditions: Measles morbillivirus
# [3] = Aqueous solubility by nephelometry; format: physicochemical; conditions: for solubility: buffer, pH 7.4, aqueous buffer, kinetic from dmso stock; for Aqueous solubility (μg/ml) Test: buffer pH=7.4
# [4] = MTT cytotoxicity; format: cell-based; conditions: African green monkey, Vero cells; averages of at least three experiments; highest concentration assessed 75 μM
# [5] = Pharmacokinetic study in rat, plasma concentration after dosing; format: in vivo, Sprague-Dawley rat; conditions: for AUC(0-inf) / AUC (0-t) / Cmax / Tmax / half-life / AUC (0-∞) / T½: suspension in PEG200/0.5% methylcellulose (10/90); for half-life: read-out: T½ (converted); for dose proportionality: range of 10 mg/kg to 50 mg/kg
# Procedure: Preliminary pharmacokinetic (PK) studies in the Sprague-Dawley rat compared AS-136a with compounds 2k and 2o following p.o. dosing by oral gavage at 10 mg/kg and 50 mg/kg in a PEG200/0.5% methylcellulose (10/90) vehicle (n=4/group).
# The data from the preliminary pharmacokinetic studies using the 6-hour time point are reported for comparison purposes. […] On the basis of its excellent in vitro potency, good solubility and pharmacokinetic profile, compound 2o was chosen for further bioavailability evaluation.
# [6] = test system: Vero cells; assay: MTT cytotoxicity; format: cell-based; conditions: averages of at least three experiments; highest concentration assessed 75 μM
# [7] = Table 3, averages of four experiments, concentration range 2.3-75 μM, read-out: EC50 (μM) (MV-Alaska) CPE inhibition
# [8] = MV-Alaska, read-out: EC50 in the virus titer reduction assay
# [9] = averages of two to four experiments ± SEM, highest concentration assessed 1 μM, read-out: EC50 (μM) (MV-Alaska) virus titer reduction
# [10] = Sprague-Dawley, plasma, oral 10 mg/kg
# [11] = Sprague-Dawley, plasma, oral 50 mg/kg
smiles,measurement,setting,value
"Cn1nc(C(F)(F)F)cc1C(=O)Nc1ccc(S(=O)(=O)N2CCCCC2CCN2CCOCC2)cc1 (single isomer, unassigned) [Compound 2o, 1-methyl-N-(4-((2-(2-morpholinoethyl)piperidin-1-yl)sulfonyl)phenyl)-3-(trifluoromethyl)-pyrazole-5-carboxamide]",EC50,"[1]; Table 1, piperidine series, read-out: EC50 (μM) (MV-Alaska) (CPE inhib.)",4.5 µM
same,EC50,[1]; [7],4.5 µM
same,EC50,[2]; [8],0.02 µM
same,EC50,[2]; [9],0.02 µM
same,solubility,"[3]; Nephelometer, read-out: Aqueous solubility (μg/ml) Test",60 µg/mL
same,solubility,"[3]; nephelometry, read-out: aqueous solubility",~60 µg/mL
same,CC50,[4],> 75 µM
same,AUC(0-inf),[5]; [10],818 ng·h/mL
same,AUC (0-t),"[5]; Sprague-Dawley, plasma, oral 10 mg/kg, read-out: AUC (0-t)",683 ng·h/mL
same,Cmax,"[5]; Sprague-Dawley, plasma, oral 10 mg/kg, read-out: Cmax",195 ng/mL
same,Tmax,"[5]; Sprague-Dawley, plasma, oral 10 mg/kg, read-out: Tmax",1.1 h
same,half-life,[5]; [10],2.2 h
same,AUC(0-inf),[5]; [11],7860 ng·h/mL
same,AUC (0-t),"[5]; Sprague-Dawley, plasma, oral 50 mg/kg, read-out: AUC (0-t)",3520 ng·h/mL
same,Cmax,"[5]; Sprague-Dawley, plasma, oral 50 mg/kg, read-out: Cmax",823 ng/mL
same,Tmax,"[5]; Sprague-Dawley, plasma, oral 50 mg/kg, read-out: Tmax",1.5 h
same,half-life,[5]; [11],6.5 h
same,bioavailability,"[5]; Sprague-Dawley, plasma, oral, 2 mg/kg i.v. and 10 mg/kg p.o., read-out: oral bioavailability (F)",39%
same,exposure (AUC/Cmax) increase in rat relative to AS-136a,[5]; p.o.,10 fold
same,dose proportionality,[5]; p.o.,near dose proportionality
"Cn1nc(C(F)(F)F)cc1C(=O)Nc1ccc(S(=O)(=O)N2CCCCC2CCO)cc1 (stereo not shown) [Compound 2k, N-(4-((2-(2-hydroxyethyl)piperidin-1-yl)sulfonyl)phenyl)-1-methyl-3-(trifluoromethyl)-pyrazole-5-carboxamide]",EC50,[1]; [7],2.7 µM
same,EC50,"[1]; MV-Alaska, read-out: EC50, CPE assay",2.7 µM
same,EC50,[2]; [8],0.06 µM
same,EC50,[2]; [9],0.06 µM
same,Aqueous solubility (μg/ml) Test,[3]; Nephelometer,62 µg/mL
same,CC50,[6],> 75 µM
same,AUC (0-t),[5]; oral 10 mg/kg,56.3 ng·h/mL
same,AUC (0-∞),[5]; oral 10 mg/kg,56.8 ng·h/mL
same,Cmax,[5]; oral 10 mg/kg,19.8 ng/mL
same,Tmax,[5]; oral 10 mg/kg,1 h
same,T½,[5]; oral 10 mg/kg,0.8 h
same,AUC (0-t),[5]; oral 50 mg/kg,754 ng·h/mL
same,AUC (0-∞),[5]; oral 50 mg/kg,973 ng·h/mL
same,Cmax,[5]; oral 50 mg/kg,184 ng/mL
same,Tmax,[5]; oral 50 mg/kg,0.5 h
same,T½,[5]; oral 50 mg/kg,2.7 h
same,dose proportionality,[5]; p.o.,non-proportionality
"Cn1nc(C(F)(F)F)cc1C(=O)Nc1ccc(S(=O)(=O)c2ccccc2O)cc1 [Compound 3c, N-(4-((2-hydroxyphenyl)sulfonyl)phenyl)-1-methyl-3-(trifluoromethyl)-pyrazole-5-carboxamide]",EC50,"[1]; Table 2, phenyl and acyclic series, read-out: EC50 (μM) (MV-Alaska) (CPE inhibition)",4.5 µM
same,Aqueous solubility (μg/ml) Test,[3]; Nephelometer,67 µg/mL
same,CC50,[4],≥ 75 µM
